target: T1, human cathepsin K (Homo sapiens, UniProt P43235); test: Cathepsin K inhibition assay, human recombinant enzyme, fluorogenic substrate Cbz-Phe-Arg-AMC; assay type: biochemical; conditions: Table 1, human cathepsin K; read-out: h Cat K IC50
T1 construct: The proform of cathepsin K was converted to mature cathepsin K by brief exposure to pH 4; made in house; host or cells: baculovirus; Trichoplusia ni High Five cells (virus raised in Sf-9)
T1 sequence (P43235 115-329): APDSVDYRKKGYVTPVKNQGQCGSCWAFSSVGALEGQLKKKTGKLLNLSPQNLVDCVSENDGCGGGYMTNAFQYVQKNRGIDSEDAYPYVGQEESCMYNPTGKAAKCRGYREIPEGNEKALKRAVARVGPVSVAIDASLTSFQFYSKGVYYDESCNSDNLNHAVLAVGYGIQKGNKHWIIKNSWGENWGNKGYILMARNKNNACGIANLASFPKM
Method: All assays for cathepsin K were carried out with human and rat recombinant enzyme. Assays for cathepsins S ? V were also carried out with human recombinant enzyme. Assays for human cathepsins B, H, and L were carried out with enzyme, purchased from Athens Research and Technology, Inc., prepared from human liver tissue. […] A stock substrate solution of Cbz-Phe-Arg-AMC was prepared at a concentration of 50 mM in dimethyl sulfoxide. This substrate was diluted into the assay for a final substrate concentration of 10 μM in the rat cathepsin K, human cathepsin K, and human cathepsin B assays; a final substrate concentration of 5 μM in the human cathepsin L assay; and a final substrate concentration of 2 μM in the human cathepsin V assay.
All assays contained 10% dimethyl sulfoxide. […] All assays were conducted at 30° C. Product fluorescence (excitation at 360 nm; emission at 440 nm, (except cathepsin H which used excitation at 340 nm; emission at 420 nm)) was monitored with a PerSeptive Biosystems Cytofluor II fluorescence plate reader. Product progress curves were generated over 2.3 h monitoring the formation of 7-amino-4-methylcoumarin product (or β-naphthalamide for cathepsin H).
Human and rat Cathepsin K:
Two liters of Spodoptera frugiperda (Sf-9) cells (ATCC) were grown in Grace's Supplemented medium (Life Technologies) supplemented with 2 g/L glucose, 10% fetal bovine serum (HyClone) and 0.1% pluronic F-68 (Life Technologies). […] The cells continued to grow for 72 h post-infection, before the virus was harvested by centrifugation at 1400×g for 30 min.
One and one-half liters of Trichoplusia ni (T. ni) High Five (™) cells [JRH Biosciences, Woodland, Calif. […] The cells were grown for 24 h at 28° C., 50 RPM, and 50% dissolved oxygen. […] Media were separated from cells at a rate of 1 L/min using the Centritech 100 ™ continuous-flow centrifuge (DuPont) operating at 200×g.
Protein Purification: Media (human and rat) were filtered through a Whatman 3 filter, and then loaded onto a 25 mL. Poros HS II (26 mm×47 mm) cation exchange column equilibrated in 25 mM sodium acetate at pH 5.5 (equilibration buffer). The column was washed until the absorbance reached the baseline value, and then the protein was eluted with a linear gradient from 0-2 M sodium chloride in the equilibration buffer. Column fractions were analyzed by SDS-PAGE, N-terminal sequencing, and mass spectrometry. Fractions containing the proform of cathepsin K were pooled and frozen at −80° C. The proform was concentrated in an Amicon Centriprep 10 and fractionated with a Superdex 75 column (26 mm×600 mm, Pharmacia) equilibrated in 400 mM sodium chloride, 25 mM sodium acetate at pH 5.5.
Cathepsin K Activation: The proform of cathepsin K was converted to mature cathepsin K by brief exposure to pH 4 in the presence of 5 mM L-cysteine. Typically, 5 mM L-cysteine was added to 10 mL of approximately 1 mg/mL procathepsin K. One mL of this solution was diluted ten-fold into 450 mM sodium acetate at pH 4.0 containing 5 mM L-cysteine. This solution was reacted at 23° C. for 2 min before neutralization with 2 mL, 1.8 M sodium acetate at pH 6.0. The neutralized sample was added to the remaining 9 mL of procathepsin K. The mixture was incubated at 4° C. for 2-3 days. The activated cathepsin K was chromatographed on a Poros HS II column as described above.
Potential inhibitors were evaluated using the progress curve method. Assays were carried out in the presence of variable concentrations of test compound. Reactions were initiated by addition of buffered solutions of inhibitor and substrate to enzyme. Data analysis was conducted according to one of two procedures depending on the appearance of the progress curves in the presence of inhibitors. […] Ki values were calculated from IC50 values using equation 2 assuming a competitive model.

Structure (SMILES) | IC50 [nM]
CCCC[C@H](NC(=O)O[C@@H]1CN(C(=O)Cc2ccc(C(C)(C)C)cc2)CC1(C)C)C(=O)C(=O)N[C@H](C)c1ccccc1 [Example 25, (3S)-1-[(4-tert-Butylphenyl)acetyl]-4,4-dimethylpyrrolidinyl (1S)-1-(oxo{[(1R)-1-phenylethyl]amino}acetyl)pentylcarbamate] | 10 to 100
CCCC[C@H](NC(=O)O[C@@H]1CN(C(=O)c2csc(-c3ccncc3)n2)CC1(C)C)C(=O)C(=O)N[C@H](C)c1ccccc1 [Example 26, (3S)-4,4-Dimethyl-1-{[2-(4-pyridinyl)-1,3-thiazol-4-yl]carbonyl}pyrrolidinyl (1S)-1-(oxo{[(1R)-1-phenylethyl]amino}acetyl)pentylcarbamate] | 10 to 100
CCCC[C@H](NC(=O)O[C@@H]1CN(C(=O)c2c(-c3ccccc3)noc2C)CC1(C)C)C(=O)C(=O)N[C@H](C)c1ccccc1 [Example 27, (3S)-4,4-Dimethyl-1-[(5-methyl-3-phenyl-4-isoxazolyl)carbonyl]pyrrolidinyl (1S)-1-(oxo{[(1R)-1-phenylethyl]amino}acetyl)pentylcarbamate] | 10 to 100
CCCC[C@H](NC(=O)O[C@@H]1CN(C(=O)c2cc3ccccc3n2C)CC1(C)C)C(=O)C(=O)N[C@H](C)c1ccccc1 [Example 28, (3S)-4,4-Dimethyl-1-[(1-methyl-1H-indol-2-yl)carbonyl]pyrrolidinyl (1S)-1-(oxo{[(1R)-1-phenylethyl]amino}acetyl)pentylcarbamate] | 10 to 100
CCCC[C@H](NC(=O)O[C@@H]1CN(C(=O)c2cnc3ccccc3c2)CC1(C)C)C(=O)C(=O)N[C@H](C)c1ccccc1 [Example 29, (3S)-4,4-Dimethyl-(3-quinolinylcarbonyl)pyrrolidinyl 1-(oxo{[(1R)-1-phenylethyl]amino}acetyl)pentylcarbamate] | 10 to 100
CCCC[C@H](NC(=O)O[C@@H]1CN(C(=O)Cc2ccc(-c3ccccc3)cc2)CC1(C)C)C(=O)C(=O)N[C@H](C)c1ccccc1 [Example 30, (3S)-1-([1,1′-Biphenyl]-4-ylacetyl)-4,4-dimethylpyrrolidinyl (1S)-1-(oxo {[(1R)-1-phenylethyl]amino}acetyl)pentylcarbamate] | 10 to 100
CCCC[C@H](NC(=O)O[C@@H]1CN(C(=O)Cc2ccccc2Oc2ccccc2)CC1(C)C)C(=O)C(=O)N[C@H](C)c1ccccc1 [Example 31, (3S)-4,4-Dimethyl-1-[(2-phenoxyphenyl)acetyl]pyrrolidinyl (1S)-1-(oxo{[(1R)-1-phenylethyl]amino}acetyl)pentylcarbamate] | 10 to 100
CCCC[C@H](NC(=O)O[C@@H]1CN(C(=O)c2cc3ccccc3[nH]2)CC1(C)C)C(=O)C(=O)N[C@H](C)c1ccccc1 [Example 32, (3S)-1-(1H-Indol-2-ylcarbonyl)-4,4-dimethylpyrrolidinyl (1S)-1-(oxo {[(1R)-1-phenylethyl]amino}acetyl)pentylcarbamate] | 10 to 100
CCCCC(NC(=O)O[C@@H]1CN(C(=O)Cc2cccnc2)CC1(C)C)C(=O)C(=O)N[C@H](C)c1ccccc1 (stereo partly drawn) [Example 33, (3S)-4,4-Dimethyl-1-(3-pyridinylacetyl)pyrrolidinyl 1-(oxo{[(1R)-1-phenylethyl]amino}acetyl)pentylcarbamate] | 10 to 100
CCCC[C@H](NC(=O)O[C@@H]1CN(C(=O)c2nc[nH]n2)CC1(C)C)C(=O)C(=O)N[C@H](C)c1ccccc1 [Example 34, (3S)-4,4-Dimethyl-1-(1H-1,2,4-triazol-3-ylcarbonyl)pyrrolidinyl (1S)-1-(oxo{[(1R)-1-phenylethyl]amino}acetyl)pentylcarbamate] | 10 to 100
CCCC[C@H](NC(=O)O[C@@H]1CN(C(=O)Cc2cc(C)no2)CC1(C)C)C(=O)C(=O)N[C@H](C)c1ccccc1 [Example 35, (3S)-4,4-Dimethyl-1-[(3-methyl-5-isoxazolyl)acetyl]pyrrolidinyl (1S)-1-(oxo{[(1R)-1-phenylethyl]amino}acetyl)pentylcarbamate] | 1 to 10
CCCC[C@H](NC(=O)O[C@@H]1CN(C(=O)c2n[nH]c3ccccc23)CC1(C)C)C(=O)C(=O)N[C@H](C)c1ccccc1 [Example 36, (3S)-1-(1H-Indazol-3-ylcarbonyl)-4,4-dimethylpyrrolidinyl (1S)-1-(oxo {[(1R)-1-phenylethyl]amino}acetyl)pentylcarbamate] | 1 to 10
CCCC[C@H](NC(=O)O[C@@H]1CN(C(=O)c2csc(-c3snnc3C)n2)CC1(C)C)C(=O)C(=O)N[C@H](C)c1ccccc1 [Example 37, (3S)-4,4-Dimethyl-1-{[2-(4-methyl-1,2,3-thiadiazol-5-yl)-1,3-thiazol-4-yl]carbonyl}pyrrolidinyl (1S)-1-(oxo{[(1R)-1-phenylethyl]amino}acetyl)pentylcarbamate] | 10 to 100
CCCC[C@H](NC(=O)O[C@@H]1CN(C(=O)Cc2csc(-c3cnccn3)n2)CC1(C)C)C(=O)C(=O)N[C@H](C)c1ccccc1 [Example 38, (3S)-4,4-Dimethyl-1-{[2-(2-pyrazinyl)-1,3-thiazol-4-yl]acetyl-}pyrrolidinyl (1S)-1-(oxo{[(1R)-1-phenylethyl]amino}acetyl)pentylcarbamate] | 10 to 100
CCCC[C@H](NC(=O)O[C@@H]1CN(C(=O)Cc2ccc(F)cc2)CC1(C)C)C(=O)C(=O)N[C@H](C)c1ccccc1 [Example 39, (3S)-1-[(4-Fluorophenyl)acetyl]-4,4-dimethylpyrrolidinyl (1S)-1-(oxo{[(1R)-1-phenylethyl]amino}acetyl)pentylcarbamate] | 10 to 100
CCCC[C@H](NC(=O)O[C@@H]1CN(C(=O)OCc2ccc(-c3ccccc3)cc2)CC1(C)C)C(=O)C(=O)N[C@H](C)c1ccccc1 [Example 40, [1,1′-biphenyl]-4-ylmethyl (4S)-3,3-dimethyl-4-[({[(1S)-1-(oxo{[(1R)-1-phenylethyl]amino}acetyl)pentyl]amino}carbonyl)oxy]-1-pyrrolidinecarboxylate] | 1 to 10
CCCC[C@H](NC(=O)O[C@@H]1CN(C(=O)OCC2CCCO2)CC1(C)C)C(=O)C(=O)N[C@H](C)c1ccccc1 (stereo partly drawn) [Example 41, Tetrahydro-2-furanylmethyl (4S)-3,3-dimethyl-4-[({[(1S)-1-(oxo{[(1R)-1-phenylethyl]amino}acetyl)pentyl]amino}carbonyl)oxy]-1-pyrrolidinecarboxylate] | 1 to 10
CCCC[C@H](NC(=O)O[C@@H]1CN(C(=O)OCc2ccsc2)CC1(C)C)C(=O)C(=O)N[C@H](C)c1ccccc1 [Example 42, 3-Thienylmethyl (4S)-3,3-dimethyl-4-[({[(1S)-1-(oxo {[(1R)-1-phenylethyl]amino}acetyl)pentyl]amino}carbonyl)oxy]-1-pyrrolidinecarboxylate] | 10 to 100
CCCC[C@H](NC(=O)O[C@@H]1CN(C(=O)O[C@H]2CCOC2)CC1(C)C)C(=O)C(=O)N[C@H](C)c1ccccc1 [Example 43, (3S)-Tetrahydro-3-furanyl (4S)-3,3-dimethyl-4-[({[(1S)-1-(oxo{[(1R)-1-phenylethyl]amino}acetyl)pentyl]amino}carbonyl)oxy]-1-pyrrolidinecarboxylate] | 10 to 100
CCCC[C@H](NC(=O)O[C@@H]1CN(C(=O)OCc2ccccc2)CC1(C)C)C(=O)C(=O)N[C@H](C)c1ccccc1 [Example 44, Benzyl (4S)-3,3-dimethyl-4-[({[(1S)-1-(oxo{[(1R)-1-phenylethyl]amino}acetyl)pentyl]amino}carbonyl)oxy]-1-pyrrolidinecarboxylate] | 10 to 100

From patent publication US7402606B2, “Derivatives of 1-(oxoaminoacetyl) pentylcarbamate as cathepsin K inhibitors for the treatment of bone loss” (SmithKline Beecham Corporation, priority 2002, dated 2008)
